Tests used:
Assay in all cases: biochemical
Parameters in all cases: DiscoverX KinomeScan competition binding assay across human kinases; per cent of control at 10 and 100 uM
[1] = biological target: ABL2 (Homo sapiens, UniProt P42684); conditions: competition binding, % of control; read-out: Percent Control (100 uM Levosimendan)
Procedure, shortened: (§1)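 KinomeScan competition binding was run across a human kinase panel at 10 μM and 100 μM levosimendan. Results are %control = (test − positive control)/(negative control − positive control) × 100.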

[2] = biological target: CDKL1 (Homo sapiens, UniProt Q00532); conditions: competition binding, % of control
CDKL1, sequence (Q00532 whole entry): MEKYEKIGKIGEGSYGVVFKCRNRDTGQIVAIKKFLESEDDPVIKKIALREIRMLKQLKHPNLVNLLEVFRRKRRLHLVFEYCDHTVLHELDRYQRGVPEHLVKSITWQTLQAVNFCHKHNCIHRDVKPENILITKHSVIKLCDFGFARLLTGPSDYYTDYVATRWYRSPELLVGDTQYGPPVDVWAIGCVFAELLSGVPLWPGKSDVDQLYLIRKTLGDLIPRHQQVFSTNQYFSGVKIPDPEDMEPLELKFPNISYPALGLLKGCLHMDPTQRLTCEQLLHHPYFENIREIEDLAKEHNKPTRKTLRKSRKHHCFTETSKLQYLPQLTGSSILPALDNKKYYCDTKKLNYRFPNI
Procedure, shortened: as §1

[3] = biological target: EPHA1 (Homo sapiens, UniProt P21709); conditions: competition binding, % of control; read-out: Percent Control (100 uM Levosimendan)
Procedure, shortened: as §1

[4] = biological target: FGFR3 (Homo sapiens, UniProt P22607); conditions: competition binding, % of control; read-out: Percent Control (100 uM Levosimendan)
FGFR3, sequence (P22607 whole entry): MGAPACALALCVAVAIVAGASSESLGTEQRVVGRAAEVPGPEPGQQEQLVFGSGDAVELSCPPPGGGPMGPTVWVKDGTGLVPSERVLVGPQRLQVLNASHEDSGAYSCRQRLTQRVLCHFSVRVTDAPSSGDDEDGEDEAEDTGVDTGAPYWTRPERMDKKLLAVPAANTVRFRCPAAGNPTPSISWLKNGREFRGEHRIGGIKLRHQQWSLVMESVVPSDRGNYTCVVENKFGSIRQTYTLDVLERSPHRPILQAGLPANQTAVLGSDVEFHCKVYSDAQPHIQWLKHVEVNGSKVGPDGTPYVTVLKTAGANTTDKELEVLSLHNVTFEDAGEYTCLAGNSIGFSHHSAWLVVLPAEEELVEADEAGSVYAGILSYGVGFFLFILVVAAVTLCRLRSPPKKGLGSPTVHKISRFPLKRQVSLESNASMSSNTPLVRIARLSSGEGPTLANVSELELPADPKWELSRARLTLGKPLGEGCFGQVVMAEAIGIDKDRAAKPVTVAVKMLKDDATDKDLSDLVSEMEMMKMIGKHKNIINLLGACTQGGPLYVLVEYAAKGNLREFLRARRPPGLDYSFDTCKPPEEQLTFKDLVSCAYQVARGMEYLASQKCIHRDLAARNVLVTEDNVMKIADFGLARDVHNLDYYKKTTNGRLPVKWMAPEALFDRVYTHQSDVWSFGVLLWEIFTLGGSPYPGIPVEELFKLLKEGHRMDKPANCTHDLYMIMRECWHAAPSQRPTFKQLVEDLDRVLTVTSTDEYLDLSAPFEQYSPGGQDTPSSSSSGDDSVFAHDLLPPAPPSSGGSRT
Procedure, shortened: as §1

[5] = biological target: FLT3-autoinhibited (Homo sapiens, UniProt P36888); conditions: competition binding, % of control; read-out: Percent Control (100 uM Levosimendan)
FLT3-autoinhibited, sequence (P36888 whole entry): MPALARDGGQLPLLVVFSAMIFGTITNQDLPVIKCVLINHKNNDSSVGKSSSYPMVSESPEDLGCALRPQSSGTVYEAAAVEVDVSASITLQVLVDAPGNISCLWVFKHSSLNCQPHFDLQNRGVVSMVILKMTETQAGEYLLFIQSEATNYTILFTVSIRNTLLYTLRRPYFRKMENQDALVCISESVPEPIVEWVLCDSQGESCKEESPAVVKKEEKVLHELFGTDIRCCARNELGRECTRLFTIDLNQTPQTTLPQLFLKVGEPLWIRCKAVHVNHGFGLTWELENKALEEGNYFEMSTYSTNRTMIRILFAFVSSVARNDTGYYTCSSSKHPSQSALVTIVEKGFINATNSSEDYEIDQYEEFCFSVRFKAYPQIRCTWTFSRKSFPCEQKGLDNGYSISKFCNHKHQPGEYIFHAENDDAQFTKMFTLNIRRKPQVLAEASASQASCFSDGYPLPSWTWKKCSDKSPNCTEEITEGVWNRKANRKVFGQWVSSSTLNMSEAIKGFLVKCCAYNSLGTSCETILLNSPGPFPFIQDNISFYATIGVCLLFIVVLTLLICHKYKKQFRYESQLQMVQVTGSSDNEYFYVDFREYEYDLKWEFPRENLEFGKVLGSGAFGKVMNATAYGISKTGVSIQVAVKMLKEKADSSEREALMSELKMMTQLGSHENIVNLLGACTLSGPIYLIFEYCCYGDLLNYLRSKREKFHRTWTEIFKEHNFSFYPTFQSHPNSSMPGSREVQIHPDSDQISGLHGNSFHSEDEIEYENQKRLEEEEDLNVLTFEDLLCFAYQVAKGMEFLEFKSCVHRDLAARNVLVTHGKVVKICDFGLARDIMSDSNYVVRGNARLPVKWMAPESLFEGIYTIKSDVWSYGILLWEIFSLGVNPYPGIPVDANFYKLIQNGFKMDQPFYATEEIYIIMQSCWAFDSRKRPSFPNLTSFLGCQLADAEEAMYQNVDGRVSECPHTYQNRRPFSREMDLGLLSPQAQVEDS
Procedure, shortened: as §1

[6] = biological target: T1, ICK (Homo sapiens, UniProt Q9UPZ9); conditions: competition binding, % of control; read-out: Percent Control (100 uM Levosimendan)
T1 construct: gene CILK1
Procedure, shortened: as §1

[7] = biological target: IRAK4 (Homo sapiens, UniProt Q9NWZ3); conditions: competition binding, % of control; read-out: Percent Control (100 uM Levosimendan)
IRAK4, sequence (Q9NWZ3 whole entry): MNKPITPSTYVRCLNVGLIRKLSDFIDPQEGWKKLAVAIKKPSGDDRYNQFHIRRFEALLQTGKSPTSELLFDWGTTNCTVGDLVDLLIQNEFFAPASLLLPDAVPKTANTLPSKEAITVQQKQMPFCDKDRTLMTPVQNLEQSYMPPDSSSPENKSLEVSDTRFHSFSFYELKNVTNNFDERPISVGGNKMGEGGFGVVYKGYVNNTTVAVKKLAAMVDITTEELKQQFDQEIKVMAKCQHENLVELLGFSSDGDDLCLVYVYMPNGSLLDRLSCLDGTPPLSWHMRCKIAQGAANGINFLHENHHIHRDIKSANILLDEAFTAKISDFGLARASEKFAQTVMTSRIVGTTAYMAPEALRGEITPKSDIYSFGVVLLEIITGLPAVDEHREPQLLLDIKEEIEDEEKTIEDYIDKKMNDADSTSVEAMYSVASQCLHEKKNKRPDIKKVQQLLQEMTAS
Procedure, shortened: as §1

[8] = biological target: T2, JAK3(JH1domain-catalytic) (Homo sapiens, UniProt P52333); conditions: competition binding, % of control; read-out: Percent Control (100 uM Levosimendan)
T2 construct: JH1domain-catalytic
Procedure, shortened: as §1

[9] = biological target: MAP3K15 (Homo sapiens, UniProt Q6ZN16); conditions: competition binding, % of control; read-out: Percent Control (100 uM Levosimendan)
Procedure, shortened: as §1

[10] = biological target: MARK4 (Homo sapiens, UniProt Q96L34); conditions: competition binding, % of control; read-out: Percent Control (100 uM Levosimendan)
Procedure, shortened: as §1

[11] = biological target: T3, PFTK1 (Homo sapiens, UniProt O94921); conditions: competition binding, % of control; read-out: Percent Control (100 uM Levosimendan)
T3 construct: gene CDK14
Procedure, shortened: as §1

[12] = biological target: PIK3CA(E542K) (Homo sapiens, UniProt P42336, E542K); conditions: competition binding, % of control; read-out: Percent Control (100 uM Levosimendan)
Procedure, shortened: as §1

[13] = biological target: PIK3CA(H1047Y) (Homo sapiens, UniProt P42336, H1047Y); conditions: competition binding, % of control; read-out: Percent Control (100 uM Levosimendan)
Procedure, shortened: as §1

[14] = biological target: T4, RSK2(Kin.Dom.2-C-terminal) (Homo sapiens, UniProt P51812); conditions: competition binding, % of control; read-out: Percent Control (100 uM Levosimendan)
T4 construct: gene RPS6KA3; Kin.Dom.2-C-terminal
T4 sequence (P51812 whole entry): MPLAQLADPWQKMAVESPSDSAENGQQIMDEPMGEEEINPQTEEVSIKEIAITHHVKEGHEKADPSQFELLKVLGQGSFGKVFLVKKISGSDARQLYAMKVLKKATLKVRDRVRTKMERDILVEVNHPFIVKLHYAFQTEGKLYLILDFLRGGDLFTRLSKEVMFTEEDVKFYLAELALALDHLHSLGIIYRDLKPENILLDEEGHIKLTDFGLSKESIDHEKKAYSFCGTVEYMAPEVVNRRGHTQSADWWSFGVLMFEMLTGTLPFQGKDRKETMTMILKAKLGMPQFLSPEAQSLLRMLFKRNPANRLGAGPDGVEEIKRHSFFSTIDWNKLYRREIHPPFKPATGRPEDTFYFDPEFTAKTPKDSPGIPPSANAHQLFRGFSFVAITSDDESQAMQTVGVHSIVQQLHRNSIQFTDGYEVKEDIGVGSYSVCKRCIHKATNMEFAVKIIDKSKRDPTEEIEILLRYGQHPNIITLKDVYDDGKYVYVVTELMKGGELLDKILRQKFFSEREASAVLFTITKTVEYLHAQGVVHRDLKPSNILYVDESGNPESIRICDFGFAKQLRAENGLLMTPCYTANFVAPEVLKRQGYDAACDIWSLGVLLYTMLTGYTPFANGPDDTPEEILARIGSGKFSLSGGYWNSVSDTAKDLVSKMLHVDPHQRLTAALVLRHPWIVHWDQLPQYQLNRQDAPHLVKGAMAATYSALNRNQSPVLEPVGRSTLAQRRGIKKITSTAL
Procedure, shortened: as §1

[15] = biological target: SRMS (Homo sapiens, UniProt Q9H3Y6); conditions: competition binding, % of control; read-out: Percent Control (100 uM Levosimendan)
SRMS, sequence (Q9H3Y6 whole entry): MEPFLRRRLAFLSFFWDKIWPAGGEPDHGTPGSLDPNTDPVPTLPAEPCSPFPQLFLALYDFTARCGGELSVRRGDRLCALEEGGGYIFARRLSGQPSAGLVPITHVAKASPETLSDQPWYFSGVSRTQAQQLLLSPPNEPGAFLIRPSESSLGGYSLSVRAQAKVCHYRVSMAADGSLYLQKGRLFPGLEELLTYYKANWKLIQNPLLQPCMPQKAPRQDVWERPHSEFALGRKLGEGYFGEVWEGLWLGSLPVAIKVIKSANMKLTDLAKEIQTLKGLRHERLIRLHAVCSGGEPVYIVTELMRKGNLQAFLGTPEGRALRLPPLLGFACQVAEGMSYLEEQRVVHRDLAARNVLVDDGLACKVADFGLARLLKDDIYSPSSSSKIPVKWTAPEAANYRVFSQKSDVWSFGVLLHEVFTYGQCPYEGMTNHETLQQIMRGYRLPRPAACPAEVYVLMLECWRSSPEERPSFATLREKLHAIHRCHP
Procedure, shortened: as §1

[16] = biological target: STK16 (Homo sapiens, UniProt O75716); conditions: competition binding, % of control; read-out: Percent Control (100 uM Levosimendan)
STK16, sequence (O75716 whole entry): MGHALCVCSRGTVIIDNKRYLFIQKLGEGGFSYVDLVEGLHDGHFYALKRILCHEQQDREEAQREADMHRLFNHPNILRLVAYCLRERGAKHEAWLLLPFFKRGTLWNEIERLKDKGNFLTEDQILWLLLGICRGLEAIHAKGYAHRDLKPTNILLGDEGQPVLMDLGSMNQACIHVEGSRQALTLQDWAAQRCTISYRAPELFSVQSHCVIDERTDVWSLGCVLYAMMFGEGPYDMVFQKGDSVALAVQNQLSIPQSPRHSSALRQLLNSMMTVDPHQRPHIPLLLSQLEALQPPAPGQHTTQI
Procedure, shortened: as §1

[17] = biological target: TAOK3 (Homo sapiens, UniProt Q9H2K8); conditions: competition binding, % of control; read-out: Percent Control (100 uM Levosimendan)
TAOK3, sequence (Q9H2K8 whole entry): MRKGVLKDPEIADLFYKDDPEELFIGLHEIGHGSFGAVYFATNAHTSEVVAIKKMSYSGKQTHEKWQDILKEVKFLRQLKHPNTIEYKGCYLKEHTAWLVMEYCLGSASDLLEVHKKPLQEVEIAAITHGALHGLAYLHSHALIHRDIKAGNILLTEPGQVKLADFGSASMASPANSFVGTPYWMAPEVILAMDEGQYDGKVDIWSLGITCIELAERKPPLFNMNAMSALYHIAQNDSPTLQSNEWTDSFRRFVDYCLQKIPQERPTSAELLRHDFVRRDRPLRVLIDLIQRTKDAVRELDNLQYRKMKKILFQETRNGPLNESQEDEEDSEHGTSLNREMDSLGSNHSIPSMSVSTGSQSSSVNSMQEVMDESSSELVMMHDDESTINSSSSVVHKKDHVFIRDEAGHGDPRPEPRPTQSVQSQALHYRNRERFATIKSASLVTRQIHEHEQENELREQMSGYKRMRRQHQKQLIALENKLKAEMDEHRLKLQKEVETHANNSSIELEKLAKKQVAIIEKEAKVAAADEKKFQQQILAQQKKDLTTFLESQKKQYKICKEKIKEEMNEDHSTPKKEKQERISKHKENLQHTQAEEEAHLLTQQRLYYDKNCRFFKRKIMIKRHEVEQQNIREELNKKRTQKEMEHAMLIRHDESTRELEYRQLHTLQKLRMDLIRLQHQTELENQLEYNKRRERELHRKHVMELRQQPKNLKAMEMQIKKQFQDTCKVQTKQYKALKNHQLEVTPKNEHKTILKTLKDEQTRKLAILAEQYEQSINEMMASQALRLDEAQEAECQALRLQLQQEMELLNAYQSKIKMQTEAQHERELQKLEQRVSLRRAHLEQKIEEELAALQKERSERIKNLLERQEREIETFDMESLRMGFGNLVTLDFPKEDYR
Procedure, shortened: as §1

[18] = biological target: ULK1 (Homo sapiens, UniProt O75385); conditions: competition binding, % of control; read-out: Percent Control (100 uM Levosimendan)
Procedure, shortened: as §1

[19] = biological target: WNK4 (Homo sapiens, UniProt Q96J92); conditions: competition binding, % of control; read-out: Percent Control (100 uM Levosimendan)
Procedure, shortened: as §1

Q: Which results are given for `C[C@@H]1CC(=O)NN=C1c1ccc(NN=C(C#N)C#N)cc1` [levosimendan]?
A: remaining binding at 100 µM [1]: 89%; remaining binding at 10 µM ([2]; read-out: Percent Control (10 uM Levosimendan)): 88%; remaining binding at 100 µM ([2]; read-out: Percent Control (100 uM Levosimendan)): 47%; remaining binding at 100 µM [3]: 98%; remaining binding at 100 µM [4]: 71%; remaining binding at 100 µM [5]: 98%; remaining binding at 100 µM [6]: 94%; remaining binding at 100 µM [7]: 80%; remaining binding at 100 µM [8]: 75%; remaining binding at 100 µM [9]: 100%; remaining binding at 100 µM [10]: 87%; remaining binding at 100 µM [11]: 67%; remaining binding at 100 µM [12]: 100%; remaining binding at 100 µM [13]: 100%; remaining binding at 100 µM [14]: 66%; remaining binding at 100 µM [15]: 100%; remaining binding at 100 µM [16]: 80%; remaining binding at 100 µM [17]: 100%; remaining binding at 100 µM [18]: 95%; remaining binding at 100 µM [19]: 95%

From article PMC6576746, “Rational discovery of dual-indication multi-target PDE/Kinase inhibitor for precision anti-cancer therapy using structural systems pharmacology” (PLoS Computational Biology, 2019)
